Test results as given in patent publication US20190152967A1, “PEROXISOME PROLIFERATOR-ACTIVATED RECEPTOR GAMMA SELECTIVE AGONISTS FOR INHIBITION OF RETINAL PIGMENT EPITHELIUM DEGENERATION OR GEOGRAPHIC ATROPHY” (The Schepens Eye Research Institute, Inc., priority 2016, published 2019).

Assays:
[1] = test system: caspase-1 activation in ARPE-19 cells; assay: ox-LDL-induced caspase-1 activation (FLICA probe) in ARPE-19 cells; format: cell-based; conditions: ARPE-19 serum-starved 24 hr, ox-LDL 100 μg/ml, troglitazone 1.3 μM, 48 hr
Description: Cells were imaged by fluorescent microscope and the numbers of capase-1 positive cells for each treatment group were quantified by a masked investigator.

[2] = test system: PPARγ target genes (ANGPT, ACOX3) in ARPE19 cells; assay: PPARγ target genes expression in ARPE19 cells; conditions: 48-hour treatment, troglitazone vs. rosiglitazone
primary human RPE cells = assay: chloroquine-induced death of primary human RPE cells
human primary RPE cells = assay: ox-LDL-induced cell death of human primary RPE
Description: For both, RPE cells were treated with 500 μg/mL of ox-LDL for 48 hr. Data=mean±SEM, **P<0.01 and ***P<0.001 compared to ox-LDL group (2-tailed unpaired t-test).
Data=mean±SEM, ***P<0.001 compared to ox-LDL group (2-tailed unpaired t-test).

ARPE-19 cells = assay: ox-LDL-induced RPE (ARPE-19) cell death; format: cell-based; conditions: for protection of RPE from ox-LDL-induced cell death (FIG. 7): UVI3003 20 μM, troglitazone 1.3 μM alone or in combination with T0070907 and GW9662; for effect on the protection by PPARγ agonist troglitazone on RPE (FIG. 7): ARPE-19, ox-LDL, combined with troglitazone (1.3 μM)
Description: In FIG. 1B, ARPE-19 cells were treated for 48 hr with LDL or ox-LDL at 25, 50, or 100 μg/ml. Conditioned media were harvested, and LDH levels were quantified to evaluate cell death.
FIG. 5 is a bar graph showing testing different PPARγ agonists for RPE (ARPE-19) protection.
FIG. 7 is a bar graph showing testing the effect of different PPAR(α, γ) and RXR antagonists in ox-LDL-induced RPE (ARPE-19) cell death.

PPARγ [3] = target: T1, PPARγ (Homo sapiens, UniProt P37231); conditions: PPARγ antagonist; cited from earlier work
T1 sequence (P37231 1-505): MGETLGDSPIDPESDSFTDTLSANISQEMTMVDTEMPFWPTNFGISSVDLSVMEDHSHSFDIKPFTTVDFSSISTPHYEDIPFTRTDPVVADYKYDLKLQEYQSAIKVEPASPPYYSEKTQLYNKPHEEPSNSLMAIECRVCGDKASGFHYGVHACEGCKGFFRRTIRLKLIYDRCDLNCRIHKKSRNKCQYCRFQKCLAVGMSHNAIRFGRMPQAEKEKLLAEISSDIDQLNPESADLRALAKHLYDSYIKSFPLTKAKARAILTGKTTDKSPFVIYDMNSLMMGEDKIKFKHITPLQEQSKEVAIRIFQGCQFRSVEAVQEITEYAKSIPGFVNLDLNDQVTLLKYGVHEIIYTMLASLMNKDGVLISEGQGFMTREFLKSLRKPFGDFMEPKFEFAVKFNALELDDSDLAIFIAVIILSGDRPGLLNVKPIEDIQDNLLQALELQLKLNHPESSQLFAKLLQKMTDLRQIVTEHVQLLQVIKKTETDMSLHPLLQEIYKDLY

PPARγ [4] = target: T1, PPARγ; conditions: PPARγ agonist; cited from earlier work
RXR = RXR antagonist; cited from earlier work

Cc1c(C)c2c(c(C)c1O)CCC(C)(COc1ccc(CC3SC(=O)NC3=O)cc1)O2 (racemic) [troglitazone, (RS)-5-(4-[(6-hydroxy-2,5,7,8-tetramethylchroman-2-yl)methoxy]benzyl)thiazolidine-2,4-dione]
suppression of ox-LDL-induced caspase-1 activation (FIG. 3) [1]: significantly suppressed ox-LDL-induced caspase-1 activation
expression levels of PPARγ target genes ANGPT (angiopoietin-like-4) and ACOX3 (FIGS. 6A-B) [2]: differentially affected
suppression of RPE death induced by chloroquine (FIG. 4) (primary human RPE cells): ineffective
decrease of ox-LDL-induced cell death (FIG. 2B) (human primary RPE cells; human primary RPE, 500 μg/mL ox-LDL for 48 hr, doses of 0.65 μM and 0.98 μM): significantly decreased cell death in a dose-dependent manner
suppression of ox-LDL-induced death of primary human RPE cells (FIG. 4) (human primary RPE cells; primary human RPE cells): significantly suppressed ox-LDL-induced death
protection of RPE from ox-LDL-induced cell death (FIG. 7) (ARPE-19 cells; ARPE-19): significantly protected the RPE against ox-LDL-induced cell death
protection of RPE from ox-LDL-induced cell death (FIG. 5) (ARPE-19 cells; ARPE-19, troglitazone at 0.65 and 3.25 μM): significantly protected RPE cell from ox-LDL-induced cell death

CCC(=O)NC[C@H](Cc1ccc(OCCc2nc(-c3ccccc3)oc2C)cc1)N/C(C)=C\C(=O)c1ccc(C(F)(F)F)cc1 [GW6471]
protection of RPE from ox-LDL-induced cell death (FIG. 7) (ARPE-19 cells; ARPE-19): no detectable effect in RPE protection

O=C(Nc1ccccc1)c1cc([N+](=O)[O-])ccc1Cl [GW9662]
effect on the protection by PPARγ agonist troglitazone on RPE (FIG. 7) (ARPE-19 cells): did not affect the protection effect
protection of RPE from ox-LDL-induced cell death (FIG. 7) (ARPE-19 cells; ARPE-19): did not have any detectable protection effect
IC50 (PPARγ [3]): < 100 nM

O=C1NC(=O)C(Cc2ccc3cc(OCc4ccccc4F)ccc3c2)S1 (stereo not drawn) [MCC-555]
EC50 relative to rosiglitazone (PPARγ [4]): lower than that of rosiglitazone

CCCCC/C=C/C=C1/C(=O)C=C[C@@H]1C/C=C\CCCC(=O)O [PGJ2, 15-deoxy-Δ^12,14-Prostaglandin J2]
EC50 (PPARγ [4]): 2000 to 7000 nM

O=C(Nc1ccncc1)c1cc([N+](=O)[O-])ccc1Cl [T0070907]
effect on the protection by PPARγ agonist troglitazone on RPE (FIG. 7) (ARPE-19 cells): did not affect the protection effect
protection of RPE from ox-LDL-induced cell death (FIG. 7) (ARPE-19 cells; ARPE-19): did not have any detectable protection effect

CCCCCOc1cc2c(cc1-c1cc(/C=C/C(=O)O)ccc1O)C(C)(C)CCC2(C)C [UVI3003]
IC50 (RXR): < 1000 nM
protection of RPE from ox-LDL-induced cell death (FIG. 7) (ARPE-19 cells; ARPE-19): significantly protected RPE from ox-LDL-induced death
protection of RPE from ox-LDL-induced death (ARPE-19 cells; ARPE-19, UVI3003 at high dose (20 μM)): about 100%
